Assay results from paper PMC6099706, “Anti-Mycobacterium tuberculosis Activity of Esters of Quinoxaline 1,4-Di-N-Oxide” (Molecules : A Journal of Synthetic Chemistry and Natural …, 2018).
In brackets after ≈: the same amount, converted by molar mass.

Experiments:
Assay in all cases: microbe, parasite or virus in culture
Type in all cases: cell-based
Conditions in all cases: Mycobacterium tuberculosis
[1] = test system: M. tb H37Rv SR (streptomycin resistant)
[2] = test system: M. tb H37Rv ER (ethambutol resistant)
[3] = test system: M. tb H37Rv IR (isoniazid resistant)
[4] = test system: M. tb H37Rv RR (rifampicin resistant)

CCOC(=O)c1ccc2c(c1)[n+]([O-])c(C(C)=O)c(C(F)(F)F)[n+]2[O-] [Compound T-006]
MIC [1]: 5 µg/mL (≈ 14.5 µM) | MIC [2]: 1.25 µg/mL (≈ 3.63 µM) | MIC [3]: 1.25 µg/mL (≈ 3.63 µM) | MIC [4]: 1.25 µg/mL (≈ 3.63 µM)

CCOC(=O)c1ccc2c(c1)[n+]([O-])c(C(=O)c1cccs1)c(C(F)(F)F)[n+]2[O-] [Compound T-011]
MIC [1]: 0.625 µg/mL (≈ 1.52 µM) | MIC [2]: < 0.31 µg/mL | MIC [3]: < 0.31 µg/mL | MIC [4]: < 0.31 µg/mL

COC(=O)c1ccc2c(c1)[n+]([O-])c(C(=O)c1ccccc1)c(C(F)(F)F)[n+]2[O-] [Compound T-018]
MIC [1]: 1.25 µg/mL (≈ 3.19 µM) | MIC [2]: 0.62 µg/mL (≈ 1.58 µM) | MIC [3]: 0.62 µg/mL (≈ 1.58 µM) | MIC [4]: 0.625 µg/mL (≈ 1.59 µM)

COC(=O)c1ccc2c(c1)[n+]([O-])c(C(=O)OC)c(C)[n+]2[O-] [Compound T-022]
MIC [1]: 0.625 µg/mL (≈ 2.14 µM) | MIC [2]: 0.62 µg/mL (≈ 2.12 µM) | MIC [3]: 0.62 µg/mL (≈ 2.12 µM) | MIC [4]: < 0.31 µg/mL

CC(C)OC(=O)c1ccc2c(c1)[n+]([O-])c(C(=O)c1cccs1)c(C(F)(F)F)[n+]2[O-] [Compound T-069]
MIC [1]: 1.25 µg/mL (≈ 2.93 µM) | MIC [2]: 1.25 µg/mL (≈ 2.93 µM) | MIC [3]: 0.62 µg/mL (≈ 1.45 µM) | MIC [4]: 1.25 µg/mL (≈ 2.93 µM)

CC(C)OC(=O)c1ccc2c(c1)[n+]([O-])c(C(=O)C(C)C)c(C(F)(F)F)[n+]2[O-] [Compound T-085]
MIC [1]: 1.25 µg/mL (≈ 3.24 µM) | MIC [2]: < 0.31 µg/mL | MIC [3]: < 0.31 µg/mL | MIC [4]: 0.625 µg/mL (≈ 1.62 µM)

CCCOC(=O)c1ccc2c(c1)[n+]([O-])c(C(=O)OC)c(C)[n+]2[O-] [Compound T-088]
MIC [1]: 0.625 µg/mL (≈ 1.95 µM) | MIC [2]: < 0.31 µg/mL | MIC [3]: 0.62 µg/mL (≈ 1.94 µM) | MIC [4]: < 0.31 µg/mL

CCCOC(=O)c1ccc2c(c1)[n+]([O-])c(C(=O)c1cccs1)c(C(F)(F)F)[n+]2[O-] [Compound T-089]
MIC [1]: 1.25 µg/mL (≈ 2.93 µM) | MIC [2]: 0.625 µg/mL (≈ 1.47 µM) | MIC [3]: < 0.31 µg/mL | MIC [4]: 1.25 µg/mL (≈ 2.93 µM)

CO[C@H]1/C=C/O[C@@]2(C)Oc3c(C)c(O)c4c(O)c(c(/C=N/N5CCN(C)CC5)c(O)c4c3C2=O)NC(=O)/C(C)=C\C=C\[C@H](C)[C@H](O)[C@@H](C)[C@@H](O)[C@@H](C)[C@H](OC(C)=O)[C@@H]1C [RMP, rifampicin, reference compound]
MIC [1]: < 0.06 µg/mL | MIC [2]: < 0.06 µg/mL | MIC [3]: < 0.06 µg/mL | MIC [4]: > 2 µg/mL
